From ChEMBL document CHEMBL3508693 (2016)

Assays:
[1] = % aliskiren hemifumarate (0-168h) recovered as M2 from M3 in urine following single intravenous dose of [14C] aliskiren hemifumarate at 1 mg.Kg-1 level in marmoset; type: ADME, organism-based, Callithrix jacchus; conditions: in vivo
[2] = % aliskiren hemifumarate (0-168h) recovered as M2 from M3 in urine following single oral dose of [14C] aliskiren hemifumarate at 3 mg.Kg-1 level in marmoset; type: ADME, organism-based, Callithrix jacchus; conditions: in vivo
[3] = % aliskiren hemifumarate (0-72h) recovered as M2 from M3 in faeces following single intravenous dose of [14C] aliskiren hemifumarate at 1 mg.Kg-1 level in marmoset; type: ADME, organism-based, Callithrix jacchus, Feces; conditions: in vivo
[4] = % aliskiren hemifumarate (0-72h) recovered as M2 from M3 in faeces following single oral dose of [14C] aliskiren hemifumarate at 3 mg.Kg-1 level in marmoset; type: ADME, organism-based, Callithrix jacchus, Feces; conditions: in vivo
[5] = % aliskiren hemifumarate recovered as M2 from M3 in urine following single oral dose of 300 mg [14C]SPP100 studied in healthy men; type: ADME, organism-based; conditions: human, in vivo, at 300 mg
[6] = % aliskiren hemifumarate recovered as M2 from M3 in faeces following single oral dose of 300 mg [14C]SPP100 studied in healthy men; type: ADME, organism-based, Feces; conditions: human, in vivo, at 300 mg
[7] = % aliskiren hemifumarate recovered as M2 from M3 in urine and faeces following single oral dose of 300 mg [14C]SPP100 studied in healthy men; type: ADME, organism-based, Urine/Feces; conditions: human, in vivo, at 300 mg
[8] = % aliskiren recovered as M2 from M3 in bile following single intravenous administration of 10 mg.Kg-1 [14C] aliskiren hemifumarate in male rat; type: ADME, organism-based, HAN:WIST(SPF); conditions: in vivo
[9] = % aliskiren recovered as M2 from M3 in hydrolysed following single intravenous administration of 10 mg.Kg-1 [14C] aliskiren hemifumarate in male rat; type: ADME, organism-based, HAN:WIST(SPF), Bile; conditions: in vivo
[10] = % aliskiren recovered as M2 from M3 in urine following single intravenous administration of 10 mg.Kg-1 [14C] aliskiren hemifumarate in male rat; type: ADME, organism-based, HAN:WIST(SPF); conditions: in vivo
[11] = % aliskiren recovered as M2 from M3 of receiver rat following duodenal infusion of radioactivity through bile from donor rat treated with single intravenous administration of 10 mg.Kg-1 [14C] aliskiren hemifumarate; type: ADME, organism-based, HAN:WIST(SPF); conditions: in vivo
[12] = % of radioactivity recovered as M2 from M3 in plasma following oral administration of [14C] aliskiren hemifumarate at 100 mg.Kg-1 level in rat; type: ADME, organism-based, Albino HAN:WIST; conditions: in vivo
[13] = % of radioactivity recovered as M2 from M3 in urine following oral administration of [14C] aliskiren hemifumarate at 100 mg.Kg-1 level in rat; type: ADME, organism-based, Albino HAN:WIST; conditions: in vivo
[14] = % of radioactivity recovered as M2 from M3 in faeces following oral administration of [14C] aliskiren hemifumarate at 100 mg.Kg-1 level in rat; type: ADME, organism-based, Albino HAN:WIST, Feces; conditions: in vivo
[15] = % of radioactivity recovered as M2 from M3 in plasma following intravenous administration of [14C] aliskiren hemifumarate at 10 mg.Kg-1 level in rat; type: ADME, organism-based, Albino HAN:WIST; conditions: in vivo
[16] = % of radioactivity recovered as M2 from M3 in urine following intravenous administration of [14C] aliskiren hemifumarate at 10 mg.Kg-1 level in rat; type: ADME, organism-based, Albino HAN:WIST; conditions: in vivo
[17] = % of radioactivity recovered as M2 from M3 in faeces following intravenous administration of [14C] aliskiren hemifumarate at 10 mg.Kg-1 level in rat; type: ADME, organism-based, Albino HAN:WIST, Feces; conditions: in vivo
[18] = % aliskiren recovered as metabolite M2 in plasma following 10 day repeated oral administration of [14C] aliskiren hemifumarate at 100 mg.Kg-1 level studied in rat; type: ADME, organism-based, Albino HAN:WIST; conditions: in vivo, 240 h
[19] = % aliskiren recovered as metabolite M2 in urine following 10 day repeated oral administration of [14C] aliskiren hemifumarate at 100 mg.Kg-1 level studied in rat; type: ADME, organism-based, Albino HAN:WIST; conditions: in vivo, 240 h
[20] = % aliskiren recovered as metabolite M2 in faeces following 10 day repeated oral administration of [14C] aliskiren hemifumarate at 100 mg.Kg-1 level studied in rat; type: ADME, organism-based, Albino HAN:WIST, Feces; conditions: in vivo, 240 h
[21] = % aliskiren hemifumarate recovered as M1 in urine following single oral dose of 300 mg [14C]SPP100 studied in healthy men; type: ADME, organism-based; conditions: human, in vivo
[22] = % aliskiren hemifumarate recovered as M1 in faeces following single oral dose of 300 mg [14C]SPP100 studied in healthy men; type: ADME, organism-based, Feces; conditions: human, in vivo, at 300 mg
[23] = % aliskiren hemifumarate recovered as M1 in urine and faeces following single oral dose of 300 mg [14C]SPP100 studied in healthy men; type: ADME, organism-based, Urine/Feces; conditions: human, in vivo, at 300 mg
[24] = % aliskiren recovered as M1 in bile following single intravenous administration of 10 mg.Kg-1 [14C] aliskiren hemifumarate in male rat; type: ADME, organism-based, HAN:WIST(SPF); conditions: in vivo
[25] = % aliskiren recovered as M1 in hydrolysed following single intravenous administration of 10 mg.Kg-1 [14C] aliskiren hemifumarate in male rat; type: ADME, organism-based, HAN:WIST(SPF), Bile; conditions: in vivo
[26] = % aliskiren recovered as M1 in urine following single intravenous administration of 10 mg.Kg-1 [14C] aliskiren hemifumarate in male rat; type: ADME, organism-based, HAN:WIST(SPF); conditions: in vivo
[27] = % aliskiren recovered as M1 of receiver rat following duodenal infusion of radioactivity through bile from donor rat treated with single intravenous administration of 10 mg.Kg-1 [14C] aliskiren hemifumarate; type: ADME, organism-based, HAN:WIST(SPF); conditions: in vivo
[28] = % of radioactivity recovered as M1 in plasma following oral administration of [14C] aliskiren hemifumarate at 100 mg.Kg-1 level in rat; type: ADME, organism-based, Albino HAN:WIST; conditions: in vivo
[29] = % of radioactivity recovered as M1 in urine following oral administration of [14C] aliskiren hemifumarate at 100 mg.Kg-1 level in rat; type: ADME, organism-based, Albino HAN:WIST; conditions: in vivo
[30] = % of radioactivity recovered as M1 in faeces following oral administration of [14C] aliskiren hemifumarate at 100 mg.Kg-1 level in rat; type: ADME, organism-based, Albino HAN:WIST, Feces; conditions: in vivo
[31] = % of radioactivity recovered as M1 in plasma following intravenous administration of [14C] aliskiren hemifumarate at 10 mg.Kg-1 level in rat; type: ADME, organism-based, Albino HAN:WIST; conditions: in vivo
[32] = % of radioactivity recovered as M1 in urine following intravenous administration of [14C] aliskiren hemifumarate at 10 mg.Kg-1 level in rat; type: ADME, organism-based, Albino HAN:WIST; conditions: in vivo
[33] = % of radioactivity recovered as M1 in faeces following intravenous administration of [14C] aliskiren hemifumarate at 10 mg.Kg-1 level in rat; type: ADME, organism-based, Albino HAN:WIST, Feces; conditions: in vivo

In the case of `COc1ccc(C[C@@H](C[C@H](N)[C@@H](O)C[C@H](C(=O)NCC(C)(C)C(N)=O)C(C)C)C(C)C)cc1OCCC(=O)O`, the Compound recovery [1] is reported as 0.1%, the Compound recovery [2] is reported as 0.1% and the Compound recovery [3] is reported as 6%. It also gave a Compound recovery [4] of 2%, a Compound recovery [5] of under 0.1% and a Compound recovery [6] of 0.5%. It also gave a Compound recovery [7] of 0.6%, a Compound recovery [8] of 7.4% and a Compound recovery [9] of 10.2%. The Compound recovery [10] was 2.9%, the Compound recovery [11] was 15.4% and the Compound recovery [12] was “<= 2%”. For the same molecule, the Compound recovery [13] was “<= 2%”, the Compound recovery [14] was “<= 2%” and the Compound recovery [15] was “<= 2%”. The Compound recovery [16] was “<= 2%”, the Compound recovery [17] was over 2% and the Compound recovery [18] was “OUTCOME = Observed, VALUE = Minor amounts”. For the same molecule, the Compound recovery [19] was “OUTCOME = Observed, VALUE = Minor amounts” and the Compound recovery [20] was “OUTCOME = Observed, VALUE = Minor amounts”.
In the case of `COCCCOc1cc(C[C@@H](C[C@H](N)[C@@H](O)C[C@H](C(=O)NCC(C)(C)C(N)=O)C(C)C)C(C)C)ccc1O`, the Compound recovery [21] is reported as “OUTCOME = Not detected”, the Compound recovery [22] is reported as 0.1% and the Compound recovery [23] is reported as 0.1%. It also gave a Compound recovery [24] of 1.3%, a Compound recovery [25] of 2.8% and a Compound recovery [26] of 0.8%. For the same molecule, the Compound recovery [27] was “OUTCOME = Not detected”, the Compound recovery [28] was “OUTCOME = Not detected or not investigated” and the Compound recovery [29] was “<= 2%”. For the same molecule, the Compound recovery [30] was “<= 2%”, the Compound recovery [31] was “OUTCOME = Not detected or not investigated” and the Compound recovery [32] was “<= 2%”. It also gave a Compound recovery [33] of over 2%.
